What was measured:
[1] = system: RSV (RSV A2 ECACC, 0709161v); assay: RSV plaque reduction assay; assay type: cell-based, respiratory syncytial virus; conditions: human respiratory syncytial virus, HepG2, read-out: RSV A2 Plaque EC50, RSV A2 in Hep-G2 cells; mean of at least two experiments unless noted (n = 1)
In short: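 Eight-point compound dilutions were premixed with RSV A2 (100 PFU/well) and applied to confluent Hep-G2 cells for 2 h, followed by a 2-day incubation at 37° C. under compound-containing 0.8% CMC overlay. EC50 comes from immunostained plaque counts relative to untreated virus wells, averaged over ≥2 runs.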

cell toxicity CC50 = assay type: cell-based; conditions: human; Hep-G2 cells; mean of at least two experiments; read-out: Cell Cytotoxicity CC50

SMILES | EC50 [1] | CC50 (cell toxicity CC50)
O=C(N[C@H]1N=C(c2ccccc2)c2cccc(F)c2NC1=O)c1c(-c2ccccc2F)nn2c1OCC(O)C2 (stereo partly drawn) [Example 160, 2-(2-Fluorophenyl)-6-hydroxy-N-[(3S)-9-fluoro-2-oxo-5-phenyl-1,3-dihydro-1,4-benzodiazepin-3-yl]-6,7-dihydro-5H-pyrazolo[5,1-b][1,3]oxazine-3-carboxamide] | 148 nM | > 25000 nM
CC1CCn2nc(-c3ccc(N4C[C@@H]5C[C@H]4CO5)nc3)c(C(=O)NC3N=C(c4ccccc4)c4cccc(F)c4NC3=O)c2O1 (stereo in doubt) [Example 87, (5S)-5-Methyl-N-[(3R)-9-fluoro-2-oxo-5-phenyl-1,3-dihydro-1,4-benzodiazepin-3-yl]-2-[6-[(1S,4S)-2-oxa-5-azabicyclo[2.2.1]heptan-5-yl]pyridin-3-yl]-6,7-dihydro-5H-pyrazolo[5,1-b][1,3]oxazine-3-carboxamide] | 179 nM | > 25000 nM
C[C@@H]1CCn2nc(-c3cnn(CCN(C)C)c3)c(C(=O)N[C@H]3N=C(c4ccccc4)c4cccc(F)c4NC3=O)c2O1 [Example 165, (5R)-2-[1-[2-(Dimethylamino)ethyl]pyrazol-4-yl]-N-[(3S)-9-fluoro-2-oxo-5-phenyl-1,3-dihydro-1,4-benzodiazepin-3-yl]-5-methyl-6,7-dihydro-5H-pyrazolo[5,1-b][1,3]oxazine-3-carboxamide] | 349 nM | > 25000 nM
C[C@@H]1CCn2nc(-c3ccc(N4CCOCC4)nc3)c(C(=O)N[C@H]3N=C(c4ccccc4)c4ccccc4NC3=O)c2O1 [Example 55, (5R)-5-Methyl-2-(6-morpholino-3-pyridyl)-N-[(3S)-2-oxo-5-phenyl-1,3-dihydro-1,4-benzodiazepin-3-yl]-6,7-dihydro-5H-pyrazolo[5,1-b][1,3]oxazine-3-carboxamide] | 246 nM | > 25000 nM
C[C@@H]1CCn2nc(-c3ccc(N4CC5(COC5)C4)nc3F)c(C(=O)N[C@H]3N=C(c4ccccc4)c4cccc(F)c4NC3=O)c2O1 (single isomer, unassigned) [Example 91] | 239 nM | > 25000 nM
O=C(N[C@H]1N=C(c2ccccc2)c2cccc(F)c2NC1=O)c1c(-c2ccc(NC3CC3)nc2)nn2c1OCCC2 [Example 15, 2-[6-(Cyclopropylamino)pyridin-3-yl]-N-[(3S)-9-fluoro-2-oxo-5-phenyl-1,3-dihydro-1,4-benzodiazepin-3-yl]-6,7-dihydro-5H-pyrazolo[5,1-b][1,3]oxazine-3-carboxamide] | 30 nM | > 25000 nM
Cn1ncc2c(-c3nn4c(c3C(=O)N[C@H]3N=C(c5ccccc5)c5ccccc5NC3=O)OCCC4)cccc21 [Example 149, 2-(1-Methylindazol-4-yl)-N-[(3S)-2-oxo-5-phenyl-1,3-dihydro-1,4-benzodiazepin-3-yl]-6,7-dihydro-5H-pyrazolo[5,1-b][1,3]oxazine-3-carboxamide] | 194 nM | > 25000 nM
C[C@@H]1CCn2nc(-c3ccc(S(C)(=O)=O)cc3F)c(C(=O)N[C@H]3N=C(c4ccccc4)c4cccc(F)c4NC3=O)c2O1 [Example 137, (5R)-2-(2-Fluoro-4-methylsulfonylphenyl)-N-[(3S)-9-fluoro-2-oxo-5-penyl-1,3-dihydro-1,4-benzodiazepin-3-yl]-5-methyl-6,7-dihydro-5H-pyrazolo[5,1-b][1,3]oxazine-3-carboxamide] | 15 nM | > 25000 nM
CN(CC1COc2c(C(=O)N[C@H]3N=C(c4ccccc4)c4cccc(F)c4NC3=O)c(-c3ccccc3F)nn2C1)C1COC1 (stereo partly drawn) [Example 169, N-[(3S)-9-fluoro-2-oxo-5-phenyl-1,3-dihydro-1,4-benzodiazepin-3-yl]-2-(2-fluorophenyl)-6-[[methyl(oxetan-3-yl)amino]methyl]-6,7-dihydro-5H-pyrazolo[5,1-b][1,3]oxazine-3-carboxamide] | 114 nM | > 25000 nM
C[C@@H]1CCn2nc(-c3ccc(N4CCOCC4)nc3)c(C(=O)N[C@H]3N=C(c4ccccc4)c4cccc(F)c4NC3=O)c2O1 [Example 56, (5R)-N-[(3S)-9-fluoro-2-oxo-5-phenyl-1,3-dihydro-1,4-benzodiazepin-3-yl]-5-methyl-2-(6-morpholino-3-pyridyl)-6,7-dihydro-5H-pyrazolo[5,1-b][1,3]oxazine-3-carboxamide] | 123 nM | > 25000 nM
N#Cc1ccc(-c2nn3c(c2C(=O)N[C@H]2N=C(c4ccccc4)c4cccc(F)c4NC2=O)OCCC3)c(F)c1 [Example 138, 2-(4-Cyano-2-fluorophenyl)-N-[(3S)-9-fluoro-2-oxo-5-phenyl-1,3-dihydro-1,4-benzodiazepin-3-yl]-6,7-dihydro-5H-pyrazolo[5,1-b][1,3]oxazine-3-carboxamide] | 54 nM | > 25000 nM
Cc1ccccc1-c1nn2c(c1C(=O)N[C@H]1N=C(c3ccccc3)c3cccc(F)c3NC1=O)OCCC2 [Example 6, N-[(3S)-9-Fluoro-2-oxo-5-phenyl-1,3-dihydro-1,4-benzodiazepin-3-yl]-2-(2-methylphenyl)-6,7-dihydro-5H-pyrazolo[5,1-b][1,3]oxazine-3-carboxamide] | 165 nM | > 25000 nM
CCCC1COc2c(C(=O)N[C@H]3N=C(c4ccccc4)c4cccc(F)c4NC3=O)c(-c3ccccc3F)nn2C1 (stereo partly drawn) [Example 14, N-[(3S)-9-fluoro-2-oxo-5-phenyl-2,3-dihydro-1H-1,4-benzodiazepin-3-yl]-2-(2-fluorophenyl)-6-propyl-5H,6H,7H-pyrazolo[3,2-b][1,3]oxazine-3-carboxamide] | 36 nM | > 25000 nM
CCNc1ccc(-c2nn3c(c2C(=O)N[C@H]2N=C(c4ccccc4)c4cccc(F)c4NC2=O)O[C@H](C)CC3)cn1 [Example 52, (5R)-2-[6-(Ethylamino)-3-pyridyl]-N-[(3S)-9-fluoro-2-oxo-5-phenyl-1,3-dihydro-1,4-benzodiazepin-3-yl]-5-methyl-6,7-dihydro-5H-pyrazolo[5,1-b][1,3]oxazine-3-carboxamide] | 28 nM | > 25000 nM
O=C(N[C@H]1N=C(c2ccccc2)c2cccc(F)c2NC1=O)c1c(-c2ccc(F)cc2F)nn2c1SCCC2 [Example 34, 2-(2,4-Difluorophenyl)-N-[(3S)-9-fluoro-2-oxo-5-phenyl-2,3-dihydro-1H-1,4-benzodiazepin-3-yl]-5H,6H,7H-pyrazolo[3,2-b][1,3]thiazine-3-carboxamide] | 143 nM | > 25000 nM
CC(C)Nc1ccc(-c2nn3c(c2C(=O)N[C@H]2N=C(c4ccccc4)c4cccc(F)c4NC2=O)OCCC3)c(F)n1 [Example 4, N-[(3S)-9-Fluoro-2-oxo-5-phenyl-1,3-dihydro-1,4-benzodiazepin-3-yl]-2-[2-fluoro-6-(propan-2-ylamino)pyridin-3-yl]-6,7-dihydro-5H-pyrazolo[5,1-b][1,3]oxazine-3-carboxamide] | 29 nM | > 25000 nM
O=C(N[C@H]1N=C(c2ccccc2)c2ccccc2NC1=O)c1nn2c(c1-c1ccccc1F)OCC2 [Example 37, 7-(2-Fluorophenyl)-N-[(3S)-2-oxo-5-phenyl-1,3-dihydro-1,4-benzodiazepin-3-yl]-2,3-dihydropyrazolo[5,1-b][1,3]oxazole-6-carboxamide] | 333 nM | > 25000 nM
CCc1ccc(-c2nn3c(c2C(=O)N[C@H]2N=C(c4ccccc4)c4cccc(F)c4NC2=O)O[C@H](C)CC3)c(F)c1 [Example 75, (5R)-2-(4-Ethyl-2-fluorophenyl)-5-methyl-N-[(3S)-9-fluoro-2-oxo-5-phenyl-1,3-dihydro-1,4-benzodiazepin-3-yl]-6,7-dihydro-5H-pyrazolo[5,1-b][1,3]oxazine-3-carboxamide] | 158 nM | > 25000 nM
O=C(N[C@H]1N=C(c2ccccc2)c2cccc(F)c2NC1=O)c1c(-c2c(F)cccc2F)nn2c1OCC(CO)C2 (mixture of isomers) [Example 129, 2-(2,6-Difluorophenyl)-N-[(3S)-9-fluoro-2-oxo-5-phenyl-1,3-dihydro-1,4-benzodiazepin-3-yl]-6-(hydroxymethyl)-6,7-dihydro-5H-pyrazolo[5,1-b][1,3]oxazine-3-carboxamide] | 37 nM | > 25000 nM
C[C@@H]1CCn2nc(Nc3ccccc3)c(C(=O)N[C@H]3N=C(c4ccccc4)c4cccc(F)c4NC3=O)c2O1 [Example 95, (5R)-2-Anilino-5-methyl-N-[(3S)-9-fluoro-2-oxo-5-phenyl-1,3-dihydro-1,4-benzodiazepin-3-yl]-6,7-dihydro-5H-pyrazolo[5,1-b][1,3]oxazine-3-carboxamide] | 357 nM | > 25000 nM
NC(=O)c1ccc(-c2nn3c(c2C(=O)N[C@H]2N=C(c4ccccc4)c4cccc(F)c4NC2=O)OCCC3)c(F)c1 [Example 142, 2-(4-Carbamoyl-2-fluorophenyl)-N-[(3S)-9-fluoro-2-oxo-5-phenyl-1,3-dihydro-1,4-benzodiazepin-3-yl]-6,7-dihydro-5H-pyrazolo[5,1-b][1,3]oxazine-3-carboxamide] | 282 nM | > 25000 nM
CC(C)Nc1ccc(-c2nn3c(c2C(=O)N[C@H]2N=C(c4ccccc4)c4cccc(F)c4NC2=O)OCC2(CC2)C3)cn1 [Example 179, 2-[6-(Propan-2-ylamino)pyridin-3-yl]-N-[(3S)-9-fluoro-2-oxo-5-phenyl-1,3-dihydro-1,4-benzodiazepin-3-yl]spiro[5,7-dihydropyrazolo[5,1-b][1,3]oxazine-6,1′-cyclopropane]-3-carboxamide] | 34 nM | > 25000 nM
CN(CC1COc2c(C(=O)N[C@H]3N=C(c4ccccc4)c4cccc(F)c4NC3=O)c(-c3ccccc3F)nn2C1)C1CCOCC1 (stereo partly drawn) [Example 168, N-[(3S)-9-fluoro-2-oxo-5-phenyl-1,3-dihydro-1,4-benzodiazepin-3-yl]-2-(2-fluorophenyl)-6-[[methyl(oxan-4-yl)amino]methyl]-6,7-dihydro-5H-pyrazolo[5,1-b][1,3]oxazine-3-carboxamide] | 104 nM | > 25000 nM
